In test [1] the test system is maximum electroshock seizure (MES) model. The experiment in a line: Maximum electroshock seizure (MES) model test. Type of test: in vivo, mice. As to conditions: for MES (positive number/tested number) / responders at 100 mg/kg / responders at 50 mg/kg: Slc: ddY male mice, 3 per group, electrical stimulation 1 hour after administration, inhibition of hind limb extension; for responders at 100 mg/kg / responders at 50 mg/kg: Mus musculus, po, 1 h, read-out: MES (positive number/tested number) (converted). From the text:
In order to evaluate the antiepileptic activity of each drug, maximum electroshock seizure (MES) model, subcutaneously pentetrazol-injected model (scPTZ), and amygdala kindling model in rats were used because they show a good clinical prediction.
Test 1: Test with Maximum Electroshock Seizure (MES) Model
Test 1 evaluates the anticonvulsant action of medicaments. Animal model used herein represents the clinical phenotypes of generalized tonic seizure and secondarily generalized tonic-clonic seizure. Test compounds (50 or 100 mg/kg) were orally administered to Slc: ddY male mice (3 mice in each group, body weight 20-30 g). After an hour of administration, their corneas were electrically stimulated (60 Hz, 25 mA, 0.2 second) to induce tonic convulsion (tonic extensor in their hind limbs). […] To the control mice, 0.5% tragacanth solution or 0.5% methylcellulose solution was administered.

For test [2], the system named is subcutaneously pentetrazol-injected model (scPTZ). The test is described as follows: Subcutaneously pentetrazol-injected model (scPTZ) test. The format is in vivo, mice. To be noted: pentetrazol 85 mg/kg s.c. after 1 hour; for responders at 100 mg/kg / responders at 50 mg/kg: Mus musculus, po, 1 h, read-out: scPTZ (positive number/tested number) (converted); for responders at 100 mg/kg / scPTZ (positive number/tested number) / responders at 50 mg/kg: Slc: ddY male mice, 3 per group, observed 30 minutes for clonic convulsion. The text has this:
In order to evaluate the antiepileptic activity of each drug, maximum electroshock seizure (MES) model, subcutaneously pentetrazol-injected model (scPTZ), and amygdala kindling model in rats were used because they show a good clinical prediction. […] Test with Subcutaneously Pentetrazol-Injected Model (scPTZ) Similar to Test 1, Test 2 evaluates the anticonvulsant action of medicaments. However, unlike Test 1, animal model used herein represents the clinical phenotypes of generalized absence seizure and myoclonic seizure. Test compounds (50 or 100 mg/kg) were orally administered to Slc: ddY male mice (3 mice in each group, body weight 20-30 g). After an hour, pentetrazol (85 mg/kg) was subcutaneously administered. […] To the control mice, 0.5% tragacanth solution or 0.5% methylcellulose solution was administered.

Consider `NC(=O)C(O)c1ccccc1-c1ccccc1F` (single isomer, unassigned) [Example 213, 2-(2′-Fluorobiphenyl-2-yl)-2-hydroxyacetamide], for which the “MES (positive number/tested number)” value in test [1] (50 mg/kg oral) is recorded as 0/3. Also, the responders at 100 mg/kg in test [1] (100 mg/kg oral) is 100%; in test [2] (100 mg/kg oral), 33.3%.
For the molecule `NC(=O)C(O)c1ccccc1-c1ccccc1F` (single isomer, unassigned) [Example 214, 2-(2′-Fluorobiphenyl-2-yl)-2-hydroxyacetamide], the entries for the “MES (positive number/tested number)” value in test [1] (50 mg/kg oral) and in test [1] (100 mg/kg oral) were 2/3 and 3/3, respectively. In addition, the “scPTZ (positive number/tested number)” value in test [2] (100 mg/kg oral) was 1/3.
On to `NC(=O)C(O)c1ccccc1-c1cc(F)cc(Cl)c1` (single isomer, unassigned) [Example 217, 2-(3′-Chloro-5′-fluorobiphenyl-2-yl)-2-hydroxyacetamide], for which, in test [1] (50 mg/kg oral), the “MES (positive number/tested number)” value is 2/3. The “scPTZ (positive number/tested number)” value in test [2] (50 mg/kg oral) is given as 1/3; in test [2] (100 mg/kg oral) it was 3/3.
For the molecule `NC(=O)C(O)c1ccccc1-c1cc(F)cc(Cl)c1` (single isomer, unassigned) [Example 218, 2-(3′-Chloro-5′-fluorobiphenyl-2-yl)-2-hydroxyacetamide], the “MES (positive number/tested number)” value in test [1] (50 mg/kg oral) is 1/3. Also, the responders at 100 mg/kg in test [1] (100 mg/kg oral) was 100%. In addition, the results for the “scPTZ (positive number/tested number)” value in test [2] (50 mg/kg oral) and in test [2] (100 mg/kg oral) were 1/3 and 2/3, respectively.
For the molecule `NC(=O)C(O)c1ccccc1-c1ccccc1Cl` (single isomer, unassigned) [Example 220, 2-(2′-chlorobiphenyl-2-yl)-2-hydroxyacetamide], the figures for the responders at 50 mg/kg in test [1] (50 mg/kg oral) and in test [2] (50 mg/kg oral) were 100% and 33.3%, respectively. The responders at 100 mg/kg in test [1] (100 mg/kg oral) and in test [2] (100 mg/kg oral) was 100% in each case.
On to `CNC(=O)Cc1ccccc1-c1ccc(C(F)(F)F)cc1` [Example 2, N-methyl-2-[4′-(trifluoromethyl)biphenyl-2-yl]acetamide], for which the responders at 50 mg/kg in test [1] (50 mg/kg oral) was 100%. In addition, the figures for the responders at 100 mg/kg in test [1] (100 mg/kg oral) and in test [2] (100 mg/kg oral) were 100% and 0%, respectively.
For `CN(C)C(=O)Cc1ccccc1-c1ccc(C(F)(F)F)cc1` [Example 3, N,N-dimethyl-2-[4′-(trifluoromethyl)biphenyl-2-yl]acetamide], the responders at 50 mg/kg in test [1] (50 mg/kg oral) is 100%. Moreover, the figures for the responders at 100 mg/kg in test [1] (100 mg/kg oral) and in test [2] (100 mg/kg oral) were 100% and 33.3%, respectively.
As for `NC(=O)Cc1ccccc1-c1cccc(C(F)(F)F)c1` [Example 4, 2-[3′-(trifluoromethyl)biphenyl-2-yl]acetamide], the responders at 50 mg/kg in test [1] (50 mg/kg oral) and in test [2] (50 mg/kg oral) was 0% in each case. Also, the responders at 100 mg/kg in test [1] (100 mg/kg oral) and in test [2] (100 mg/kg oral) was 66.7% throughout.
Turning to `CNC(=O)Cc1ccccc1-c1cccc(C(F)(F)F)c1` [Example 5, N-methyl-2-[3′-(trifluoromethyl)biphenyl-2-yl]acetamide], the responders at 50 mg/kg in test [1] (50 mg/kg oral) is 0%; in test [2] (50 mg/kg oral), 33.3%. Also, the results for the responders at 100 mg/kg in test [1] (100 mg/kg oral) and in test [2] (100 mg/kg oral) were 100% and 66.7%, respectively.
Regarding `NC(=O)Cc1ccccc1-c1ccccc1C(F)(F)F` [Example 6], the responders at 50 mg/kg in test [1] (50 mg/kg oral) was 0%. Further, the responders at 100 mg/kg was 100% in test [1] (100 mg/kg oral) and 33.3% in test [2] (100 mg/kg oral).
As for `CNC(=O)Cc1ccccc1-c1ccccc1C(F)(F)F` [Example 7, N-methyl-2-[2′-(trifluoromethyl)biphenyl-2-yl]acetamide], the responders at 50 mg/kg in test [1] (50 mg/kg oral) is 66.7%; in test [2] (50 mg/kg oral), 0%. The responders at 100 mg/kg was 100% in test [1] (100 mg/kg oral) and 66.7% in test [2] (100 mg/kg oral).
With `CCNC(=O)Cc1ccccc1-c1ccccc1C(F)(F)F` [Example 8, N-ethyl-2-[2′-(trilluoromethyl)biphenyl-2-yl]acetamide], the responders at 50 mg/kg in test [1] (50 mg/kg oral) and in test [2] (50 mg/kg oral) was 0% each time. The responders at 100 mg/kg in test [1] (100 mg/kg oral) is 100%; in test [2] (100 mg/kg oral) it was 66.7%.
Regarding `CN(C)C(=O)Cc1ccccc1-c1ccccc1C(F)(F)F` [Example 9], the responders at 100 mg/kg in test [1] (100 mg/kg oral) is 33.3%; in test [2] (100 mg/kg oral), 66.7%. The responders at 50 mg/kg in test [2] (50 mg/kg oral) was 0%.
As for `NC(=O)Cc1ccccc1-c1ccc(Cl)cc1` [Example 10], in test [1] (50 mg/kg oral), the responders at 50 mg/kg is 33.3%. In addition, the responders at 100 mg/kg in test [1] (100 mg/kg oral) was 100%; in test [2] (100 mg/kg oral), 33.3%.
Consider `CNC(=O)Cc1ccccc1-c1ccc(Cl)cc1` [Example 11], for which the responders at 50 mg/kg in test [1] (50 mg/kg oral) was 0%. The responders at 100 mg/kg in test [1] (100 mg/kg oral) was 100%; in test [2] (100 mg/kg oral) it was 33.3%.
The corresponding values for `CN(C)C(=O)Cc1ccccc1-c1ccc(Cl)cc1` [Example 12] are 0%, 100% and 33.3%.
The corresponding values for `CNC(=O)Cc1ccccc1-c1cccc(Cl)c1` [Example 14] are 0%, 100% and 0%.
In the case of `CN(C)C(=O)Cc1ccccc1-c1cccc(Cl)c1` [Example 15], the responders at 50 mg/kg in test [1] (50 mg/kg oral) was 0%. In addition, the responders at 100 mg/kg was 66.7% in test [1] (100 mg/kg oral) and 0% in test [2] (100 mg/kg oral).
For `CNC(=O)Cc1ccccc1-c1ccccc1Cl` [Example 17], the figures for the responders at 100 mg/kg in test [1] (100 mg/kg oral) and in test [2] (100 mg/kg oral) were 0% and 33.3%, respectively.
As to `CCNC(=O)Cc1ccccc1-c1ccccc1Cl` [Example 18], the responders at 50 mg/kg in test [1] (50 mg/kg oral) was 0%. The values for the responders at 100 mg/kg in test [1] (100 mg/kg oral) and in test [2] (100 mg/kg oral) were 100% and 33.3%, respectively.
Turning to `NC(=O)Cc1ccccc1-c1cccc(Cl)c1Cl` [Example 19], the responders at 50 mg/kg in test [1] (50 mg/kg oral) was 33.3%. Further, the figures for the responders at 100 mg/kg in test [1] (100 mg/kg oral) and in test [2] (100 mg/kg oral) were 66.7% and 0%, respectively.
Regarding `NC(=O)Cc1ccccc1-c1cccc(F)c1F` [Example 20, 2-(2′,3′-difluorobiphenyl-2-yl)acetamide], the responders at 50 mg/kg in test [1] (50 mg/kg oral) and in test [2] (50 mg/kg oral) was 66.7% throughout. Further, the responders at 100 mg/kg was 100% in test [1] (100 mg/kg oral) and 66.7% in test [2] (100 mg/kg oral). Moreover, the “anticonvulsant action in maximum electroshock seizure (MES) model test” value in test [1] (mice, oral 50 or 100 mg/kg, 1 hour after administration) is listed as “anticonvulsant action was observed”. Besides, in test [2] (mice, oral 50 or 100 mg/kg), the “anticonvulsant action in subcutaneously pentetrazol-injected model (scPTZ) test” value is listed as “anticonvulsant action was observed”.
As for `NC(=O)Cc1ccccc1-c1ccc(F)c(F)c1` [Example 21, 2-(3′,4′-difluorobiphenyl-2-yl)acetamide], the responders at 50 mg/kg in test [1] (50 mg/kg oral) is 33.3%; in test [2] (50 mg/kg oral), 0%. Further, the responders at 100 mg/kg in test [1] (100 mg/kg oral) and in test [2] (100 mg/kg oral) was 100% throughout.
On to `NC(=O)Cc1ccccc1-c1ccc(F)cc1` [Example 22, 2-(4′-fluorobiphenyl-2-yl)acetamide], for which the responders at 50 mg/kg in test [1] (50 mg/kg oral) is 66.7%. In addition, the responders at 100 mg/kg was 100% in test [1] (100 mg/kg oral) and 33.3% in test [2] (100 mg/kg oral).
Regarding `CNC(=O)Cc1ccccc1-c1ccc(F)cc1` [Example 23, 2-(4′-fluorobiphenyl-2-yl)-N-methylacetamide], the responders at 50 mg/kg in test [1] (50 mg/kg oral) is 100%. The responders at 100 mg/kg is 100% in test [1] (100 mg/kg oral) and 33.3% in test [2] (100 mg/kg oral).
Turning to `CN(C)C(=O)Cc1ccccc1-c1ccc(F)cc1` [Example 24], in test [1] (50 mg/kg oral), the responders at 50 mg/kg was 33.3%. For the same molecule, the values for the responders at 100 mg/kg in test [1] (100 mg/kg oral) and in test [2] (100 mg/kg oral) were 100% and 0%, respectively.
In the case of `CSc1cccc(-c2ccccc2CC(N)=O)c1` [Example 94], the responders at 100 mg/kg in test [2] (100 mg/kg oral) is 33.3%.

(Values after patent US20120142771A1, “BIPHENYLACETAMIDE DERIVATIVE” (Dainippon Sumitomo Pharma Co., Ltd., priority 2008, published 2012).)
